One assay deals with T1, Human GlyT1c (Homo sapiens, UniProt P48067).
T1 construct: expressed in transfected cells; host or cells: CHO (hGlyT1c_5_CHO clone)
T1 sequence (P48067 1-706): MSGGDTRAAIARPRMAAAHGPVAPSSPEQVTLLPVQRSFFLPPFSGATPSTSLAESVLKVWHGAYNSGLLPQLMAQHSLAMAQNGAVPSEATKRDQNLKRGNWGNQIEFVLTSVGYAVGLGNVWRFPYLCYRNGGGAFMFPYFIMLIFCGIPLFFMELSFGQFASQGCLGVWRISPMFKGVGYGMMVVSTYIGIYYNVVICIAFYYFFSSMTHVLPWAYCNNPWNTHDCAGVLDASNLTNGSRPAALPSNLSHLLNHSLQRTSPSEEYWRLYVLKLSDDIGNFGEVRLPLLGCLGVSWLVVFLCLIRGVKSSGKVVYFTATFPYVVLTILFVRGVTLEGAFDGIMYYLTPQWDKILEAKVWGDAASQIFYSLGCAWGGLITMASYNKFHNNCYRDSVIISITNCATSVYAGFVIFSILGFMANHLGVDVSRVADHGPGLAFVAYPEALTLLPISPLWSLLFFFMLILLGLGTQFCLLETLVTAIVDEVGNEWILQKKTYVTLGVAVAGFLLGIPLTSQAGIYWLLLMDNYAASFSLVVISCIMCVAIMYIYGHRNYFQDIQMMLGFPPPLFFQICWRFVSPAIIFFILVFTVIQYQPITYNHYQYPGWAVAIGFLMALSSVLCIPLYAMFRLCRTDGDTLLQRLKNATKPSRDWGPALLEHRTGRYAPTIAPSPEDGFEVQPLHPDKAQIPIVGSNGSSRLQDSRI
Description: Glycine uptake in recombinant hGlyT1 expressing cells. It is filed as cell-based. The conditions noted are these: hGlyT1c_5_CHO cells; [3H]-glycine uptake, 60-120 min. The protocol: 1. Glycine Uptake in Recombinant hGlyT1 Expressing Cells:
Human GlyT1c expressing recombinant hGlyT1c—5_CHO cells were plated at 20,000 cells per well in 96 well Cytostar-T scintillation microplates (Amersham Biosciences) and cultured to sub-confluency for 24 h. For glycine uptake assays the culture medium was aspirated and the cells were washed once with 100 μl HBSS (Gibco BRL, #14025-050) with 5 mM L-Alanine (Merck #1007). 80 μl HBSS buffer were added, followed by 10 μl inhibitor or vehicle (10% DMSO) and 10 μl [^3H]-glycine (TRK71, Amersham Biosciences) to a final concentration of […] for initiation of glycine uptake. The plates were placed in a Wallac Microbeta (PerkinElmer) and continuously counted by solid phase scintillation spectrometry during up to 3 hours. Nonspecific uptake was determined in the presence of 10 μM Org24598. IC50 calculations were made by four-parametric logistic nonlinear regression analysis (GraphPad Prism) using determinations within the range of linear increase of [^3H]-glycine incorporation between 60 and 120 min.

A further assay addresses T2, human GlyT1c transporter (Homo sapiens, UniProt P48067).
T2 construct: expressed in transfected cells; host or cells: recombinant hGlyT1-expressing cells
T2 sequence (P48067 1-706): T1 sequence (P48067 1-706)
The assay is described as follows: [3H]-(R)-NPTS radioligand binding assay using recombinant hGlyT1 expressing cell membranes. The conditions noted are these: 0.5 nM [3H]-(R)-NPTS, apparent Ki via Cheng-Prusoff, read-out: [3H]-(R)-NPTS bindung Ki. The protocol: 2. [^3H]-(R)-NPTS Radioligand Binding Assays using Recombinant hGlyT1 Expressing Cell Membranes:
Radioligand binding to human GlyT1c transporter-expressing membranes was measured in duplicate in a total volume of 200 μl in 96-well plates. To 100 μl of membrane suspension (yielding a final membrane protein concentration of 50 μg/ml) in assay buffer (120 mM NaCl, 2 mM KCl, 10 mM Hepes, 1 mM MgCl2, 1 mM CaCl2, pH 7.5) […] of [^3H]-(R)NPTS (0.5 nM final) were added in assay buffer. For competition experiments 10 μl of buffer or unlabeled compound solution obtained from dilution series of test compounds in DMSO followed. An intermediate 1:10 dilution in assay buffer yielded a final DMSO concentration of 1%. Non-specific binding was determined in the presence of 10 μM Org24598 (or its racemate Org24461) for [^3H]-(R)-NPTS. After incubation at room temperature for 1 h, the incubation mixture was harvested (Tomtec Mach III U Harvester) through 96-well GF/B filter plates (PerkinElmer), presoaked for 1 h with 40 μl per well of 0.1% polyethylene-imine (PEI). After washing twice with ice-cold 50 mM Tris-HCl pH 7.4 buffer, drying and addition of 35 μl scintillator (BetaplateScint, PerkinElmer) per well followed. The radioactivity was determined by liquid scintillation spectrometry in a MicroBeta (PerkinElmer) plate counter.
Data analysis: For binding of [^3H]-(R)-NPTS to cell membranes, the calculation of Kd and Bmax values from the saturation binding assays and the IC50 values from the displacement binding was performed by iterative non-linear regression analysis adapted from the ‘Ligand’ program (Munson and Rodbard, 1980). Radioligand displacement curves in absence or in presence of increasing concentrations of tested compounds were fitted using a one-site fit and the apparent Ki values were calculated from the IC50 values using the Cheng-Prusoff equation (Cheng and Prusoff 1973).

pIC50, pKi: −log10 of the molar value. Counter-ions that a name gives are not always drawn.

Regarding `Cc1cc(NCc2ccc(Cl)c(Cl)c2)c2cccc(OCCNC(=O)C(C)C)c2n1` [Example 26, N-{2-[4-(3,4-Dichlorobenzylamino)-2-methylquinolin-8-yloxy]-ethyl}-isobutyramide], the pIC50 (usually the IC50 on a negative log10 scale, so that one unit is a factor of ten) at Human GlyT1c was no less than 6.00. The pKi (commonly the Ki on a negative log10 scale, so that one unit is a factor of ten) on human GlyT1c transporter was no less than 6.00.

For the compound `CCS(=O)(=O)NCCOc1cccc2c(NCc3ccc(Cl)c(Cl)c3)cc(C)nc12` [Example 27, Ethanesulfonic {2-[4-(3,4-Dichloro-benzylamino)-2-methylquinolin-8-yloxy]-ethyl}-amide], the pIC50 on Human GlyT1c was no less than 8.00. For the same compound, the pKi at human GlyT1c transporter is no less than 8.00.

Regarding `Cc1cc(NCc2ccc(Cl)c(Cl)c2)c2cccc(OCCNS(=O)(=O)c3ccc4ccccc4c3)c2n1` [Example 28, Naphthyl-2-sulfonic {2-[4-(3,4-dichlorobenzylamino)-2-methylquinolin-8-yloxy]-ethyl}-amide], the pIC50 on Human GlyT1c was no less than 6.00. Further, the pKi on human GlyT1c transporter is no less than 7.00.

On to `Cc1cc(NCc2ccc(Cl)c(Cl)c2)c2cccc(OCCNS(=O)(=O)C(F)(F)F)c2n1` [Example 29, N-{2-[4-(3,4-Dichlorobenzylamino)-2-methylquinolin-8-yloxy]-ethyl}-C,C,C-trifluoromethanesulfonamide], for which, on Human GlyT1c, the pIC50 is no less than 7.00. The pKi on human GlyT1c transporter is no less than 7.00.

For `Cc1cc(NCc2ccc(Cl)c(Cl)c2)c2cccc(OCCNS(=O)(=O)c3cccnc3)c2n1` [Example 30, Pyridine-3-sulfonic {2-[4-(3,4-dichlorobenzylamino)-2-methylquinolin-8-yloxy]-ethyl}amide], the pIC50 on Human GlyT1c is no less than 7.00. The pKi at human GlyT1c transporter is no less than 8.00.

With `Cc1cc(NCc2ccc(Cl)c(Cl)c2)c2cccc(OCCNS(=O)(=O)CC(C)C)c2n1` [Example 31, 2-Methylpropane-1-sulfonic {2-[4-(3,4-dichlorobenzylamino)-2-methylquinolin-8-yloxy]-ethyl}-amide], the pIC50 at Human GlyT1c was no less than 7.00. The pKi on human GlyT1c transporter was no less than 8.00.

For the compound `Cc1cc(NCc2ccc(Cl)c(Cl)c2)c2cccc(OCCNS(=O)(=O)Cc3ccccc3)c2n1` [Example 32, N-{2-[4-(3,4-Dichloro-benzylamino)-2-methylquinolin-8-yloxy]-ethyl}-C-phenyl-methanesulfonamide], on Human GlyT1c, the pIC50 was no less than 6.00. For the same compound, the pKi on human GlyT1c transporter was no less than 7.00.

Take `C=CCN1CCCC[C@H]1[C@@H](Nc1cc(C)nc2c(OCCNC(=O)OC(C)(C)C)cccc12)c1ccccc1` [Example 33, [2-(4-{[(S)—((S)-1-Allyl-piperidin-2-yl)-phenylmethyl]-amino}-2-methylquinolin-8-yloxy)ethyl]-carbamate tert-butyl ester]: at Human GlyT1c, the pIC50 was no less than 5.00. The pKi on human GlyT1c transporter was no less than 5.00.

Regarding `C=CCN1CCCC[C@H]1[C@@H](Nc1cc(C)nc2c(OCCN)cccc12)c1ccccc1` [Example 34, [(S)—((S)-1-Allylpiperidin-2-yl)-phenylmethyl]-[8-(2-aminoethoxy)-2-methylquinolin-4-yl]-amine], on Human GlyT1c, the pIC50 is no less than 4.00. Further, at human GlyT1c transporter, the pKi was no less than 5.00.

As for `C=CCN1CCCC[C@H]1[C@@H](Nc1cc(C)nc2c(OCCNS(C)(=O)=O)cccc12)c1ccccc1` [Example 35, N-[2-(4-{[(S)—((S)-1-Allylpiperidin-2-yl)-phenylmethyl]-amino}-2-methylquinolin-8-yloxy)ethyl]methanesulfonamide], the negative-log IC50 (pIC50) on Human GlyT1c is no less than 5.00. Besides, the pKi at human GlyT1c transporter is no less than 5.00.

In the case of `Cc1cc(NCc2ccc(Cl)cc2Cl)c2cccc(OCCN)c2n1` [Example 36, [8-(2-Aminoethoxy)-2-methylquinolin-4-yl]-(2,4-dichlorobenzyl)-amine], the negative logarithm of the IC50 (pIC50) on Human GlyT1c is no less than 5.00. For the same compound, the pKi at human GlyT1c transporter was no less than 7.00.

In the case of `Cc1cc(N[C@@H](c2ccccc2)[C@@H]2CCCCN2)c2cccc(OCCNS(C)(=O)=O)c2n1` [Example 37, N-(2-{2-Methyl-4-[((S)-phenyl-(S)-piperidin-2-yl-methyl)-amino]-quinolin-8-yloxy}-ethyl)methanesulfonamide dihydrochloride], on Human GlyT1c, the pIC50 is no less than 6.00. The pKi on human GlyT1c transporter is no less than 7.00.

Regarding `Cc1cc(NCc2ccc(Cl)cc2Cl)c2cccc(OCCNS(C)(=O)=O)c2n1` [Example 38, N-{2-[4-(2,4-Dichlorobenzylamino)-2-methylquinolin-8-yloxy]-ethyl}-methanesulfonamide], the pIC50 at Human GlyT1c was no less than 6.00. For the same compound, the pKi at human GlyT1c transporter was no less than 7.00.

`Cc1cc(NCc2ccc(Cl)cc2Cl)c2cccc(OCCNS(=O)(=O)CC(C)C)c2n1` [Example 39, 2-Methylpropane-1-sulfonic {2-[4-(2,4-dichlorobenzylamino)-2-methylquinolin-8-yloxy]-ethyl}-amide]: the pIC50 at Human GlyT1c was no less than 6.00. At human GlyT1c transporter, the pKi was no less than 7.00.

Regarding `Cc1cc(N[C@@H](c2ccccc2)[C@@H]2CCCCN2)c2cccc(OCCNS(=O)(=O)c3cccnc3)c2n1` [Example 40, Pyridin-3-sulfonic (2-{2-methyl-4-[((S)-phenyl-(S)-piperidin-2-yl-methyl)-amino]-quinolin-8-yloxy}-ethyl)-amide dihydrochloride], the pIC50 at Human GlyT1c was no less than 5.00. Also, the pKi on human GlyT1c transporter was no less than 7.00.

Regarding `Cc1cc(NCc2ccc(Cl)c(Cl)c2)c2cccc(O)c2n1` [Example 41, 4-(3,4-Dichlorobenzylamino)-2-methylquinolin-8-ol], at Human GlyT1c, the pIC50 was no less than 6.00. For the same compound, the pKi on human GlyT1c transporter was no less than 7.00.

As to `Cc1cc(NCc2ccc(Cl)c(Cl)c2)c2cccc(OC(C)C)c2n1` [Example 42, (3,4-Dichlorobenzyl)-(8-isopropoxy-2-methylquinolin-4-yl)-amine hydrochloride], the pIC50 on Human GlyT1c was no less than 7.00. In addition, the pKi on human GlyT1c transporter is no less than 7.00.

Turning to `CCCOc1cccc2c(NCc3ccc(Cl)c(Cl)c3)cc(C)nc12` [Example 43, (3,4-Dichlorobenzyl)-(2-methyl-8-propoxyquinolin-4-yl)-amine], on Human GlyT1c, the negative-log IC50 (pIC50) was no less than 6.00. At human GlyT1c transporter, the pKi was no less than 7.00.

For the compound `Cc1cc(NCc2ccc(Cl)c(Cl)c2)c2cccc(Oc3ccccc3)c2n1` [Example 44, (3,4-Dichlorobenzyl)-(2-methyl-8-phenoxyquinolin-4-yl)-amine], at Human GlyT1c, the pIC50 is no less than 6.00. The pKi at human GlyT1c transporter was no less than 6.00.

`CCCOc1cccc2c(NCc3ccc(C(F)(F)F)c(Cl)c3)cc(C)nc12` [Example 45, (3-Chloro-4-trifluoromethylbenzyl)-(2-methyl-8-propoxyquinoline-4-yl)-amine hydrochloride]: the pIC50 on Human GlyT1c is no less than 5.00. The pKi on human GlyT1c transporter is no less than 5.00.

For `Cc1cc(NCc2ccc(Cl)c(Cl)c2)c2cccc(OCc3ccccc3)c2n1` [Example 46, (8-Benzyloxy-2-methylquinolin-4-yl)-(3,4-dichlorobenzyl)-amine], the pIC50 on Human GlyT1c is no less than 6.00. Also, the pKi at human GlyT1c transporter is no less than 7.00.

On to `Cc1cc(NCc2ccc(Cl)c(Cl)c2)c2cccc(OCCn3cccn3)c2n1` [Example 47, (3,4-Dichlorobenzyl)-[2-methyl-8-(2-pyrazol-1-yl-ethoxy)-quinolin-4-yl]-amine hydrochloride], for which, on Human GlyT1c, the pIC50 is no less than 6.00. Moreover, the pKi on human GlyT1c transporter was no less than 7.00.

Values taken from patent US8420670B2 (Abbott Laboratories, priority 2007, dated 2013).
